Experimental data published in US12029751B2, “Therapeutic agent for nervous system disease” (OSAKA UNIVERSITY, priority 2017, dated 2024).

System: rat sciatic nerve crush injury model
Assay: Macrophage phenotypes after sciatic nerve injury (immunohistological evaluation, rat sciatic nerve crush injury model)
Format: in vivo
Set-up: Number of M2 macrophages: unit: per mm^2
Experimental: Effects of methylcobalamin on macrophage phenotypes after sciatic nerve injury were analyzed by an immunohistological evaluation method. Specifically, the analysis was carried out as follows. Using transverse nerve sections at 2.5 mm in the proximal direction, at the injury site, and at 2.5, 5.0, and 7.5 mm in the distal direction, macrophages were evaluated by immunofluorescence staining at 1, 3, 7, and 14 days after sciatic nerve injury. The proximal direction refers to a cell body side of an axon with respect to an injury site, and the distal direction refers to a terminal side of an axon with respect to an injury site. Each of the distances indicates a distance from the injury site (the same applies to Example 8). Macrophages were labeled with CD68, an M1 marker iNOS, and an M2 marker CD206. The proportion of M1 macrophage was calculated by the following formula: Proportion of M1 macrophage (%)=number of M1-marker positive macrophages per mm^2/number of macrophages per mm^2×100. A more detailed description will be provided below.
Six-week-old male Wistar rats (about 200 g) were used. The left sciatic nerve was exteriorized, and crush injury of the sciatic nerve was made on the proximal side by forceps. The nerve was crushed for 10 seconds three times at 10-second intervals. The fascia and skin were sutured using 3-0 nylon. A non-injury group which underwent only sciatic nerve exposure, an untreated group, and a methylcobalamin treatment group were compared. To administer methylcobalamin continuously, an osmotic minipump was placed and left in the dorsal subcutaneous space, and methylcobalamin was administered at a dose of 1 mg/kg/day. In an untreated group, physiological saline was administered instead of methylcobalamin according to the same procedure.
At 1, 3, 7, and 14 days after the surgery, rats were anesthetized with an anesthetic agent. The left sciatic nerve was collected, fixed with 4% PFA for 7 days and with 20% sucrose for 24 hours, and the fixed nerve was freeze-embedded. The embedded tissue was sliced into a 5-μm-thick slice in a nerve short-axis direction and placed on a glass slide. Slices were obtained from 5 positions of 2.5 mm in the proximal direction from an injured region, the injured region, and 2.5, 5.0, and 7.5 mm in the distal direction. The slices were dried for 1 hour and fixed with 95% methanol for 30 minutes. The fixed slices were blocked and allowed to react with primary antibodies at 4° C. overnight. The cells were further allowed to react with a secondary antibody at room temperature for 1 hour so that the nuclei were labeled with DAPI.
The primary antibodies used were a mouse anti-CD68 monoclonal antibody (Abcam), a rabbit anti-iNOS monoclonal antibody (Abcam), a rabbit anti-CD206 monoclonal antibody (Abeam), a rabbit anti-neurofilament 200 (NF 200) polyclonal antibody (SIGMA), and a mouse anti-myelin basic protein (MBP) monoclonal antibody (Calbiochem). The secondary antibodies used were an Alexa 488-labeled goat anti-mouse IgG antibody (Life Technologies), an Alexa 488-labeled goat anti-rabbit IgG antibody (Life Technologies), an Alexa 568-labeled goat anti-mouse IgG antibody (Life Technologies), and an Alexa 568-labeled goat anti-rabbit IgG antibody (Life Technologies).

[1] = POD1, 2.5 mm in the distal direction, 1 mg/kg/day
[2] = POD1, 2.5 mm in the proximal direction, 1 mg/kg/day
[3] = POD1, 5.0 mm in the distal direction, 1 mg/kg/day
[4] = POD1, 7.5 mm in the distal direction, 1 mg/kg/day
[5] = POD3, 2.5 mm in the distal direction, 1 mg/kg/day
[6] = POD3, 2.5 mm in the proximal direction, 1 mg/kg/day
[7] = POD3, 5.0 mm in the distal direction, 1 mg/kg/day
[8] = POD3, 7.5 mm in the distal direction, 1 mg/kg/day
[9] = POD7, 2.5 mm in the distal direction, 1 mg/kg/day
[10] = POD7, 2.5 mm in the proximal direction, 1 mg/kg/day
[11] = POD7, 5.0 mm in the distal direction, 1 mg/kg/day
[12] = POD7, 7.5 mm in the distal direction, 1 mg/kg/day
[13] = POD14, 2.5 mm in the distal direction, 1 mg/kg/day
[14] = POD14, 2.5 mm in the proximal direction, 1 mg/kg/day
[15] = POD14, 5.0 mm in the distal direction, 1 mg/kg/day
[16] = POD14, 7.5 mm in the distal direction, 1 mg/kg/day
[17] = POD14, Injury site, 1 mg/kg/day

C/C1=C2/[N-][C@H]([C@H](CC(N)=O)[C@@]2(C)CCC(=O)NC[C@@H](C)OP(=O)([O-])O[C@H]2[C@@H](O)[C@@H](n3cnc4cc(C)c(C)cc43)O[C@@H]2CO)[C@]2(C)N=C(/C(C)=C3N=C(/C=C4N=C1[C@@H](CCC(N)=O)C\4(C)C)[C@@H](CCC(N)=O)[C@]\3(C)CC(N)=O)[C@@H](CCC(N)=O)[C@]2(C)CC(N)=O.[CH3-].[Co+3] [MeCbl, methylcobalamin]
Number of M2 macrophages (POD1, 2.5 mm in the distal direction): 46.53 | M1 macrophage ratio [1]: 0.183 | M2 macrophage ratio [1]: 0.658 | Number of M1 macrophages [1]: 10.27 per mm^2 | Number of macrophages [1]: 64.37 per mm^2 | Number of M2 macrophages (POD1, 2.5 mm in the proximal direction): 32.72 | M1 macrophage ratio [2]: 0.095 | M2 macrophage ratio [2]: 0.743 | Number of M1 macrophages [2]: 3.42 per mm^2 | Number of macrophages [2]: 40.53 per mm^2 | Number of M2 macrophages (POD1, 5.0 mm in the distal direction): 33.90 | M1 macrophage ratio [3]: 0.109 | M2 macrophage ratio [3]: 0.765 | Number of M1 macrophages [3]: 4.40 per mm^2 | Number of macrophages [3]: 43.67 per mm^2 | Number of M2 macrophages (POD1, 7.5 mm in the distal direction): 32.83 | M1 macrophage ratio [4]: 0.097 | M2 macrophage ratio [4]: 0.777 | Number of M1 macrophages [4]: 3.21 per mm^2 | Number of macrophages [4]: 35.68 per mm^2 | Number of M2 macrophages (POD1, Injury site): 139.28 | M1 macrophage ratio (POD1, Injury site, 1 mg/kg/day): 0.195 | M2 macrophage ratio (POD1, Injury site, 1 mg/kg/day): 0.431 | Number of M1 macrophages (POD1, Injury site, 1 mg/kg/day): 63.55 per mm^2 | Number of macrophages (POD1, Injury site, 1 mg/kg/day): 336.86 per mm^2 | Number of M2 macrophages (POD3, 2.5 mm in the distal direction): 147.74 | M1 macrophage ratio [5]: 0.165 | M2 macrophage ratio [5]: 0.693 | Number of M1 macrophages [5]: 23.50 per mm^2 | Number of macrophages [5]: 181.38 per mm^2 | Number of M2 macrophages (POD3, 2.5 mm in the proximal direction): 43.76 | M1 macrophage ratio [6]: 0.068 | M2 macrophage ratio [6]: 0.708 | Number of M1 macrophages [6]: 3.04 per mm^2 | Number of macrophages [6]: 48.52 per mm^2 | Number of M2 macrophages (POD3, 5.0 mm in the distal direction): 117.16 | M1 macrophage ratio [7]: 0.145 | M2 macrophage ratio [7]: 0.659 | Number of M1 macrophages [7]: 13.13 per mm^2 | Number of macrophages [7]: 135.88 per mm^2 | Number of M2 macrophages (POD3, 7.5 mm in the distal direction): 115.48 | M1 macrophage ratio [8]: 0.186 | M2 macrophage ratio [8]: 0.694 | Number of M1 macrophages [8]: 15.57 per mm^2 | Number of macrophages [8]: 124.99 per mm^2 | Number of M2 macrophages (POD3, Injury site): 603.12 | M1 macrophage ratio (POD3, Injury site, 1 mg/kg/day): 0.163 | M2 macrophage ratio (POD3, Injury site, 1 mg/kg/day): 0.479 | Number of M1 macrophages (POD3, Injury site, 1 mg/kg/day): 198.96 per mm^2 | Number of macrophages (POD3, Injury site, 1 mg/kg/day): 1261.77 per mm^2 | Number of macrophages (POD3, Injury site, 1 mg/kg/day, listed as methylcobalamin): significantly decreased | Number of M2 macrophages (POD7, 2.5 mm in the distal direction): 457.16 | M1 macrophage ratio [9]: 0.043 | M2 macrophage ratio [9]: 0.463 | Number of M1 macrophages [9]: 37.09 per mm^2 | Number of macrophages [9]: 921.92 per mm^2 | Number of M2 macrophages (POD7, 2.5 mm in the proximal direction): 26.25 | M1 macrophage ratio [10]: 0.049 | M2 macrophage ratio [10]: 0.642 | Number of M1 macrophages [10]: 1.54 per mm^2 | Number of macrophages [10]: 36.63 per mm^2 | Number of M2 macrophages (POD7, 5.0 mm in the distal direction): 432.13 | M1 macrophage ratio [11]: 0.039 | M2 macrophage ratio [11]: 0.505 | Number of M1 macrophages [11]: 25.29 per mm^2 | Number of macrophages [11]: 763.17 per mm^2 | Number of M2 macrophages (POD7, 7.5 mm in the distal direction): 327.16 | M1 macrophage ratio [12]: 0.045 | M2 macrophage ratio [12]: 0.506 | Number of M1 macrophages [12]: 22.71 per mm^2 | Number of macrophages [12]: 584.14 per mm^2 | Number of M2 macrophages (POD7, Injury site): 654.63 | M1 macrophage ratio (POD7, Injury site, 1 mg/kg/day): 0.046 | M2 macrophage ratio (POD7, Injury site, 1 mg/kg/day): 0.571 | Number of M1 macrophages (POD7, Injury site, 1 mg/kg/day): 47.56 per mm^2 | Number of macrophages (POD7, Injury site, 1 mg/kg/day): 1096.37 per mm^2 | Number of macrophages (POD7, Injury site, 1 mg/kg/day, listed as methylcobalamin): significantly decreased | Number of M2 macrophages (POD14, 2.5 mm in the distal direction): 443.91 | M1 macrophage ratio [13]: 0.033 | M2 macrophage ratio [13]: 0.459 | Number of M1 macrophages [13]: 27.86 per mm^2 | Number of macrophages [13]: 898.81 per mm^2 | Number of M2 macrophages (POD14, 2.5 mm in the proximal direction): 35.65 | M1 macrophage ratio [14]: 0.039 | M2 macrophage ratio [14]: 0.638 | Number of M1 macrophages [14]: 2.34 per mm^2 | Number of macrophages [14]: 51.79 per mm^2 | Number of M2 macrophages (POD14, 5.0 mm in the distal direction): 434.68 | M1 macrophage ratio [15]: 0.029 | M2 macrophage ratio [15]: 0.487 | Number of M1 macrophages [15]: 22.35 per mm^2 | Number of macrophages [15]: 827.51 per mm^2 | Number of M2 macrophages (POD14, 7.5 mm in the distal direction): 417.86 | M1 macrophage ratio [16]: 0.024 | M2 macrophage ratio [16]: 0.487 | Number of M1 macrophages [16]: 15.59 per mm^2 | Number of macrophages [16]: 752.29 per mm^2 | Number of M2 macrophages (POD14, Injury site): 560.45 | M1 macrophage ratio [17]: 0.025 | M2 macrophage ratio [17]: 0.610 | Number of M1 macrophages [17]: 21.33 per mm^2 | Number of macrophages [17]: 899.57 per mm^2 | Number of macrophages (POD14, Injury site, 1 mg/kg/day, listed as methylcobalamin): significantly decreased | numbers of M1 macrophages as compared to the untreated group (all evaluation days (1, 3, 7, 14 days), 1 mg/kg/day): significantly decreased | numbers of M1 macrophages as compared to the untreated group (distal portions, 7 and 14 days after the surgery, 1 mg/kg/day): significant differences | number of macrophages as compared to the untreated group (distal positions, 14 days after the surgery, 1 mg/kg/day): significant difference | numbers of M2 macrophages as compared to the untreated group (injury site, 1, 7 and 14 days after the surgery, 1 mg/kg/day): significantly increased
